≈ marks a conversion by molar mass, not a printed value.
Assays:
[1] = Solubility limit in 1 M NaOH; type: physicochemical; settings: aqueous buffer
From the text: In one embodiment, the phenazine derivative is present in the electrolyte at a concentration within a range of 0.01 M to 4 M. In an independent embodiment, the phenazine derivative is present in the electrolyte at a concentration within a range of from 4 M to 8 M. Certain embodiments of the phenazine derivatives provide 2 moles of electron transfer per mole of the compound, thus providing, for example, 2 M electron transfer when the phenazine derivative concentration is 1 M.

[2] = Cyclic voltammetry in 1 M NaOH; type: physicochemical; settings: scan rate 100 mV/sec, 8.5 mM
Description: Electrochemical Methods: Cyclic voltammetry experiments were performed with a CH Instruments model 660C potentiostat using a glassy carbon working electrode, a platinum wire counter electrode, and a Ag/AgCl reference electrode.
[…]. This potential exceeds all other aqueous organic flow battery systems reported to date, which, combining the high effective electron concentration resulted from high solubility, leads to high theoretical energy densities.

[3] = cited from earlier work

solubility [1] [mM]	redox couple (vs. Ag/AgCl) [2] [V]	SMILES	solubility in water [3]
1450 (≈ 424 mg/mL)	−1.08	O=S(=O)(O)c1ccc2nc3cc(O)c(O)cc3nc2c1 [DHPS, 7,8-dihydroxy-phenazine-2-sulfonic acid]	
		c1ccc2nc3ccccc3nc2c1 [phenazine]	insoluble in water

— US10454124B2, “Highly stable phenazine derivatives for aqueous redox flow batteries” (Battelle Memorial Institute, priority 2017, dated 2019)
